Source: ChEMBL document CHEMBL1144507, “Synthesis and antifungal activity of (Z)-5-arylidenerhodanines” (2007)

What was measured:
Candida albicans [1] = assay: Antifungal activity against Candida albicans C125-2000 after 48 hrs; type: functional
Candida albicans [2] = assay: Antifungal activity against Candida albicans C126-2000 after 48 hrs; type: functional
Candida albicans [3] = assay: Antifungal activity against Candida albicans C127-2000 after 48 hrs; type: functional
Candida albicans [4] = assay: Antifungal activity against Candida albicans C128-2000 after 48 hrs; type: functional
Candida albicans [5] = assay: Antifungal activity against Candida albicans C130-2000 after 48 hrs; type: functional
Nakaseomyces glabratus = assay: Antifungal activity against Candida glabrata C115-2000 after 48 hrs; type: functional
Candida parapsilosis = assay: Antifungal activity against Candida parapsilosis C124-2000 after 48 hrs; type: functional; details: Lodderomyces parapsilosis
Clavispora lusitaniae = assay: Antifungal activity against Candida lusitaniae C131-2000 after 48 hrs; type: functional
Torulaspora delbrueckii = assay: Antifungal activity against Candida coliculosa C122-2000 after 48 hrs; type: functional
Pichia kudriavzevii = assay: Antifungal activity against Candida krusei C117-2000 after 48 hrs; type: functional
Kluyveromyces marxianus = assay: Antifungal activity against Candida kefyr C123-2000 after 48 hrs; type: functional
Candida tropicalis = assay: Antifungal activity against Candida tropicalis C131-1997 after 48 hrs; type: functional
Cryptococcus neoformans [6] = assay: Antifungal activity against […] ATCC 32264 after 48 hrs; type: functional; details: ATCC 32264, 48 h
Cryptococcus neoformans [7] = assay: Antifungal activity against Candida neoformans IM 983040 after 48 hrs; type: functional
Cryptococcus neoformans [8] = assay: Antifungal activity against […] IM 972724 after 48 hrs; type: functional
Cryptococcus neoformans [9] = assay: Antifungal activity against […] IM 042074 after 48 hrs; type: functional
Cryptococcus neoformans [10] = assay: Antifungal activity against […] IM 983036 after 48 hrs; type: functional
Cryptococcus neoformans [11] = assay: Antifungal activity against […] IM 00319 after 48 hrs; type: functional
Cryptococcus neoformans [12] = assay: Antifungal activity against […] IM 972751 after 48 hrs; type: functional
Cryptococcus neoformans [13] = assay: Antifungal activity against […] IM 031631 after 48 hrs; type: functional; details: Cryptococcus neoformans, 48 h; for MFC: read-out: MFC
Cryptococcus neoformans [14] = assay: Antifungal activity against […] IM 031706 after 48 hrs; type: functional
Cryptococcus neoformans [15] = assay: Antifungal activity against […] IM 961951 after 48 hrs; type: functional
Cryptococcus neoformans [16] = assay: Antifungal activity against […] IM 052470 after 48 hrs; type: functional
Nannizzia gypsea = assay: Antifungal activity against Microsporum gypseum C115 after 48 hrs; type: functional
Trichophyton rubrum = assay: Antifungal activity against Trichophyton rubrum C113 after 48 hrs; type: functional
Trichophyton benhamiae [17] = assay: Antifungal activity against Trichophyton mentagrophytes ATCC 9972 after 48 hrs; type: functional, Arthroderma benhamiae; details: ATCC 9972, 48 h
Candida albicans [18] = assay: Antifungal activity against Candida albicans ATCC 10231 after 48 hrs; type: functional; details: ATCC 10231, 48 h
Saccharomyces cerevisiae = assay: Antifungal activity against Saccharomyces cerevisiae ATCC 9763 after 48 hrs; type: functional; details: ATCC 9763, 48 h
Cryptococcus neoformans [19] = assay: Antifungal activity against Cryptococcus neoformans ATCC 32264 after 48 hrs; type: functional; details: ATCC 32264, 48 h
Aspergillus niger = assay: Antifungal activity against Aspergillus niger ATCC 9029 after 48 hrs; type: functional; details: ATCC 9029, 48 h
Aspergillus fumigatus = assay: Antifungal activity against Aspergillus fumigatus ATCC 26934 after 48 hrs; type: functional; details: ATCC 26934, 48 h
Aspergillus flavus = assay: Antifungal activity against Aspergillus flavus ATCC 9170 after 48 hrs; type: functional; details: ATCC 9170, 48 h
Candida albicans [20] = assay: Antifungal activity against Candida albicans C129-2000 after 48 hrs; type: functional
Trichophyton benhamiae [21] = assay: Antifungal activity against Trichophyton mentagrophytes C108 after 48 hrs; type: functional, Arthroderma benhamiae
Trichophyton benhamiae [22] = assay: Antifungal activity against Trichophyton mentagrophytes C364 after 48 hrs; type: functional, Arthroderma benhamiae
Trichophyton benhamiae [23] = assay: Antifungal activity against Trichophyton mentagrophytes C539 after 48 hrs; type: functional, Arthroderma benhamiae
Trichophyton benhamiae [24] = assay: Antifungal activity against Trichophyton mentagrophytes C738 after 48 hrs; type: functional, Arthroderma benhamiae
Trichophyton benhamiae [25] = assay: Antifungal activity against Trichophyton mentagrophytes C943 after 48 hrs; type: functional, Arthroderma benhamiae

C[C@@H]1[C@H](O)[C@@H](C)/C=C/C=C/C=C/C=C/C=C/C=C/C=C/[C@H](O[C@@H]2O[C@H](C)[C@@H](O)[C@H](N)[C@@H]2O)C[C@@H]2O[C@](O)(C[C@@H](O)C[C@@H](O)[C@H](O)CC[C@@H](O)C[C@@H](O)CC(=O)O[C@H]1C)C[C@H](O)[C@H]2C(=O)O [AMPHOTERICIN B]
0.36 µg/mL: MFC (Torulaspora delbrueckii)
0.25 µg/mL: MFC (Cryptococcus neoformans [6]) | MFC (Cryptococcus neoformans [9]) | MFC (Cryptococcus neoformans [11]) | MFC (Cryptococcus neoformans [12]) | MFC (Cryptococcus neoformans [14])
0.13 µg/mL: MFC (Cryptococcus neoformans [7]) | MFC (Cryptococcus neoformans [10]) | MFC (Cryptococcus neoformans [13])
0.5 µg/mL: MFC (Candida tropicalis) | MFC (Cryptococcus neoformans [16])
0.78 µg/mL: MFC (Candida albicans [1]) | MFC (Candida albicans [3]) | MFC (Candida albicans [5]) | MFC (Candida parapsilosis) | MFC (Kluyveromyces marxianus)
1.56 µg/mL: MFC (Candida albicans [2]) | MFC (Candida albicans [4])
0.06 µg/mL: MFC (Cryptococcus neoformans [8]) | MFC (Cryptococcus neoformans [15])
0.39 µg/mL: MFC (Nakaseomyces glabratus) | MFC (Clavispora lusitaniae) | MFC (Pichia kudriavzevii)

O=C1NC(=S)S/C1=C\c1ccc(Cl)cc1
125 µg/mL: MIC (Aspergillus fumigatus) | MIC (Aspergillus flavus)
62.5 µg/mL: MIC (Nannizzia gypsea) | MIC (Trichophyton rubrum) | MIC (Trichophyton benhamiae [17])
250 µg/mL: MIC (Candida albicans [18]) | MIC (Saccharomyces cerevisiae) | MIC (Aspergillus niger)
15.6 µg/mL: MIC (Cryptococcus neoformans [19])

CCC(C)n1ncn(-c2ccc(N3CCN(c4ccc(OCC5COC(Cn6cncn6)(c6ccc(Cl)cc6Cl)O5)cc4)CC3)cc2)c1=O (stereo unspecified) [ITRACONAZOLE]
0.15 µg/mL: MFC (Cryptococcus neoformans [6])
< 0.015 µg/mL: MFC (Cryptococcus neoformans [7]) | MFC (Cryptococcus neoformans [9]) | MFC (Cryptococcus neoformans [10]) | MFC (Cryptococcus neoformans [11]) | MFC (Cryptococcus neoformans [12]) | MFC (Cryptococcus neoformans [15]) | MFC (Cryptococcus neoformans [16])
0.5 µg/mL: MFC (Cryptococcus neoformans [14])
0.25 µg/mL: MFC (Cryptococcus neoformans [8]) | MFC (Cryptococcus neoformans [13])

COc1ccc(/C=C2\SC(=S)NC2=O)c(OC)c1OC
> 250 µg/mL: MIC (Nannizzia gypsea) | MIC (Trichophyton rubrum) | MIC (Trichophyton benhamiae [17]) | MIC (Candida albicans [18]) | MIC (Saccharomyces cerevisiae) | MIC (Cryptococcus neoformans [19]) | MIC (Aspergillus niger) | MIC (Aspergillus fumigatus) | MIC (Aspergillus flavus)

Nc1nc(=O)[nH]cc1F [FLUCYTOSINE]
3.9 µg/mL: MFC (Cryptococcus neoformans [8]) | MFC (Cryptococcus neoformans [9]) | MFC (Cryptococcus neoformans [15])
15.6 µg/mL: MFC (Cryptococcus neoformans [12])
7.8 µg/mL: MFC (Cryptococcus neoformans [7]) | MFC (Cryptococcus neoformans [10]) | MFC (Cryptococcus neoformans [13]) | MFC (Cryptococcus neoformans [14]) | MFC (Cryptococcus neoformans [16])

O=C1NC(=S)S/C1=C\c1ccc(C(F)(F)F)cc1
0.97 µg/mL: MIC (Trichophyton benhamiae [22]) | MIC (Trichophyton benhamiae [25])
62.5 µg/mL: MFC (Candida albicans [1]) | MIC (Aspergillus niger) | MIC (Aspergillus flavus) | MFC (Candida albicans [5]) | MFC (Candida parapsilosis) | MFC (Clavispora lusitaniae) | MFC (Torulaspora delbrueckii)
15.6 µg/mL: MIC (Nannizzia gypsea) | MIC (Trichophyton rubrum) | MIC50 (Candida albicans [1]) | MIC (Candida albicans [2]) | MIC50 (Candida albicans [2]) | MIC80 (Candida albicans [2]) | MIC (Candida albicans [3]) | MIC80 (Candida albicans [3]) | MIC (Candida albicans [4]) | MIC50 (Candida albicans [4]) | MIC80 (Candida albicans [4]) | MIC (Candida albicans [18]) | MIC (Saccharomyces cerevisiae) | MIC50 (Candida albicans [20]) | MIC (Candida albicans [5]) | MIC80 (Candida albicans [5]) | MFC (Nakaseomyces glabratus) | MIC50 (Clavispora lusitaniae) | MIC50 (Torulaspora delbrueckii) | MIC (Pichia kudriavzevii) | MIC80 (Pichia kudriavzevii) | MFC (Kluyveromyces marxianus) | MIC (Candida tropicalis) | MIC80 (Candida tropicalis) | MFC (Cryptococcus neoformans [7]) | MFC (Cryptococcus neoformans [13])
12.5 µg/mL: MFC (Cryptococcus neoformans [16])
1.95 µg/mL: MIC (Trichophyton benhamiae [21]) | MIC (Trichophyton benhamiae [23]) | MIC (Trichophyton benhamiae [24])
1.9 µg/mL: MIC50 (Cryptococcus neoformans [7]) | MIC50 (Cryptococcus neoformans [8]) | MIC50 (Cryptococcus neoformans [9]) | MIC50 (Cryptococcus neoformans [10]) | MIC50 (Cryptococcus neoformans [12]) | MIC50 (Cryptococcus neoformans [15]) | MIC50 (Cryptococcus neoformans [16])
3.9 µg/mL: MIC (Trichophyton benhamiae [17]) | MIC (Cryptococcus neoformans [19]) | MIC (Nakaseomyces glabratus) | MIC50 (Nakaseomyces glabratus) | MIC80 (Nakaseomyces glabratus) | MIC50 (Candida parapsilosis) | MIC50 (Kluyveromyces marxianus) | MIC (Cryptococcus neoformans [6]) | MIC50 (Cryptococcus neoformans [6]) | MIC80 (Cryptococcus neoformans [6]) | MIC50 (Cryptococcus neoformans [11]) | MIC80 (Cryptococcus neoformans [11]) | MIC80 (Cryptococcus neoformans [12]) | MIC50 (Cryptococcus neoformans [13]) | MIC80 (Cryptococcus neoformans [15])
31.2 µg/mL: MIC (Candida albicans [1]) | MIC80 (Candida albicans [1]) | MFC (Candida albicans [2]) | MFC (Candida albicans [3]) | MFC (Candida albicans [4]) | MFC (Candida albicans [20]) | MIC (Candida albicans [20]) | MIC80 (Candida albicans [20]) | MIC (Candida parapsilosis) | MIC80 (Candida parapsilosis) | MIC (Clavispora lusitaniae) | MIC80 (Clavispora lusitaniae) | MIC (Torulaspora delbrueckii) | MIC80 (Torulaspora delbrueckii) | MFC (Pichia kudriavzevii) | MFC (Candida tropicalis) | MFC (Cryptococcus neoformans [14])
7.8 µg/mL: MIC50 (Candida albicans [3]) | MIC50 (Candida albicans [5]) | MIC50 (Pichia kudriavzevii) | MIC (Kluyveromyces marxianus) | MIC80 (Kluyveromyces marxianus) | MIC50 (Candida tropicalis) | MFC (Cryptococcus neoformans [6]) | MIC (Cryptococcus neoformans [7]) | MIC80 (Cryptococcus neoformans [7]) | MFC (Cryptococcus neoformans [8]) | MIC (Cryptococcus neoformans [8]) | MIC80 (Cryptococcus neoformans [8]) | MFC (Cryptococcus neoformans [9]) | MIC (Cryptococcus neoformans [9]) | MIC80 (Cryptococcus neoformans [9]) | MFC (Cryptococcus neoformans [10]) | MIC (Cryptococcus neoformans [10]) | MIC80 (Cryptococcus neoformans [10]) | MFC (Cryptococcus neoformans [11]) | MIC (Cryptococcus neoformans [11]) | MFC (Cryptococcus neoformans [12]) | MIC (Cryptococcus neoformans [12]) | MIC (Cryptococcus neoformans [13]) | MIC80 (Cryptococcus neoformans [13]) | MIC (Cryptococcus neoformans [14]) | MIC50 (Cryptococcus neoformans [14]) | MIC80 (Cryptococcus neoformans [14]) | MFC (Cryptococcus neoformans [15]) | MIC (Cryptococcus neoformans [15]) | MIC (Cryptococcus neoformans [16]) | MIC80 (Cryptococcus neoformans [16])
125 µg/mL: MIC (Aspergillus fumigatus)
